Tests used:
[1] = tested on: human small lung cancer cell line H2171; assay: Cell Viability Assay (ATPlite); format: cell-based; conditions: Homo sapiens, NCI-H2171, 72 h, Table 2, compounds of FIG. 1; H2171 cells, three days, ATPlite; calculated IC50 class; read-out: H2171 Activity
How it was run: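 Viability readout was ATPlite luminescence, taken after 3 days' incubation at 37° C. Human SCLC H2171 cells (20,000 cells/mL) received compound right after plating, as a 10-point dose response.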

c-Myc/Max/Ebox DNA = biological target: T1, c-Myc/Max/Ebox DNA (Homo sapiens, UniProt P01106); assay: c-Myc/Max/Ebox DNA AlphaScreen Assay; format: binding; conditions: Table 2, compounds of FIG. 1; calculated IC50 class
T1 construct: his6 (cleaved yes)
How it was run: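 Compounds were preincubated with free c-Myc (20 nM), biotinylated single-Ebox DNA (10 nM) and Ni acceptor beads before his6-Max (5 nM) and streptavidin donor beads were added. Buffer was 50 mM HEPES pH 8.0, 150 mM NaCl, BSA, Tween20, glycogen and DTT, with DMSO ≤2%. After 2 h incubation, AlphaScreen signal was read at 680 nm excitation and 520–620 nm emission.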

T1 sequence (P01106 whole entry): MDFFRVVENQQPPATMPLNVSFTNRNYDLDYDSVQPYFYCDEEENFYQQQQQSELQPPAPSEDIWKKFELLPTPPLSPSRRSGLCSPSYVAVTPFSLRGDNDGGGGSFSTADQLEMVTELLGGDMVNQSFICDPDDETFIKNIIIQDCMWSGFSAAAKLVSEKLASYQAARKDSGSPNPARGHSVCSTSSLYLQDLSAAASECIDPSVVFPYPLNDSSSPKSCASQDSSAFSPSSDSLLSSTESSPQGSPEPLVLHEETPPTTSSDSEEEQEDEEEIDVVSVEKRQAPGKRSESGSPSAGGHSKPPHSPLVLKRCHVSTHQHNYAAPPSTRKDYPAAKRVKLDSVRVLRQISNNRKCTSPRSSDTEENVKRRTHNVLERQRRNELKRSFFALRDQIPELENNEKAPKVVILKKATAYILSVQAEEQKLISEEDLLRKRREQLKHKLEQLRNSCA

Row | IC50 [1] [µM] | IC50 (c-Myc/Max/Ebox DNA) [µM] | Compound
1 | < 0.3 | < 0.3 | CCC(C)NCCC(=O)Nc1sc2c(c1-c1nc3cc(-n4cnc(C)c4)ccc3s1)CCNC2 (stereo not shown) [compound 149]
2 | < 0.3 | < 0.3 | CCC(C)NCCC(=O)Nc1sc2c(c1-c1nc3cc(-c4cccnc4)ccc3s1)CCNC2 (stereo not shown) [compound 150]
3 | < 0.3 | < 0.3 | CCC(C)NCCC(=O)Nc1sc2c(c1-c1nc3cc(-c4cn[nH]c4)ccc3s1)CCNC2 (stereo not shown) [compound 151]
4 | < 0.3 | < 0.3 | CC(C)NCCC(=O)Nc1sc2c(c1-c1nc3cc(-c4cnn(C)c4)ccc3s1)CCNC2 [compound 161]
5 | < 0.3 | < 0.3 | CC(C)NCCC(=O)Nc1sc2c(c1-c1nc3cc(C4=CCOCC4)ccc3s1)CCNC2 [compound 165]
6 | < 0.3 | < 0.3 | CC(C)NCCC(=O)Nc1sc2c(c1-c1nc3cc(-n4cnc(Cl)c4)ccc3s1)CCNC2 [compound 173]
7 | < 0.3 | < 0.3 | COCCNCCC(=O)Nc1sc2c(c1-c1nc3cc(-n4cnc(C)c4)ccc3s1)CCNC2 [compound 180]
8 | < 0.3 | < 0.3 | CC(C)NCCC(=O)Nc1sc2c(c1-c1nc3cc(-c4ccc(S(C)(=O)=O)cc4)ccc3s1)CCNC2 [compound 181]
9 | < 0.3 | < 0.3 | COCCNCCC(=O)Nc1sc2c(c1-c1nc3cc(-c4cnn(C)c4)ccc3s1)CCNC2 [compound 184]
10 | < 0.3 | < 0.3 | Cc1cn(-c2ccc3nc(-c4c(NC(=O)CCNC(C)C)sc5c4CCNC5)sc3c2)cn1 [compound 186]
11 | < 0.3 | < 0.3 | CC(C)NCCC(=O)Nc1sc2c(c1-c1nc3ccc(-c4ccncc4)cc3s1)CCNC2 [compound 192]
12 | < 0.3 | < 0.3 | CC(C)NCCC(=O)Nc1sc2c(c1-c1nc3ccc(-c4cccnc4)cc3s1)CCNC2 [compound 193]
13 | < 0.3 | < 0.3 | CC(C)NCCC(=O)Nc1sc2c(c1-c1nc3cc(N4CCOCC4)ccc3s1)CCNC2 [compound 302]
14 | < 0.3 | < 0.3 | COCCNCCC(=O)Nc1sc2c(c1-c1nc3cc(-c4ccncc4)ccc3s1)CCNC2 [compound 308]
15 | < 0.3 | < 0.3 | COc1ccc2sc(-c3c(NC(=O)CCNC(C)C)sc4c3CCNC4)nc2c1 [compound 316]
16 | < 0.3 | < 0.3 | COCCNCCC(=O)Nc1sc2c(c1-c1nc3cc(-c4ccc(C(=O)N5CCOCC5)cc4)ccc3s1)CCNC2 [compound 334]
17 | < 0.3 | < 0.3 | COCCNCCC(=O)Nc1sc2c(c1-c1nc3cc(-c4cncc(F)c4)ccc3s1)CCNC2 [compound 337]
18 | < 0.3 | < 0.3 | COCCNCCC(=O)Nc1sc2c(c1-c1nc3ccc(-c4cn[nH]c4)cc3s1)CCNC2 [compound 339]
19 | < 0.3 | < 0.3 | COCCNCCC(=O)Nc1sc2c(c1-c1nc3cc(-c4ccnc(NC(C)=O)c4)ccc3s1)CCNC2 [compound 342]
20 | < 0.3 | < 0.3 | COCCNCCC(=O)Nc1sc2c(c1-c1nc3cc(-c4cnc(N)nc4)ccc3s1)CCNC2 [compound 345]
21 | < 0.3 | < 0.3 | COCCNCCC(=O)Nc1sc2c(c1-c1nc3cc(-c4cncc(OC)c4)ccc3s1)CCNC2 [compound 349]
22 | < 0.3 | < 0.3 | COCCNCCC(=O)Nc1sc2c(c1-c1nc3ccc(-c4cc(C)[nH]n4)cc3s1)CCNC2 [compound 355]
23 | < 0.3 | < 0.3 | COCCNCCC(=O)Nc1sc2c(c1-c1nc3ccc(-c4cnn(C(C)C)c4)cc3s1)CCNC2 [compound 358]
24 | < 0.3 | < 0.3 | COCCNCCC(=O)Nc1sc2c(c1-c1nc3ccc(-c4cc[nH]n4)cc3s1)CCNC2 [compound 361]
25 | < 0.3 | < 0.3 | CCN(CC)c1ccc(-c2ccc3sc(-c4c(NC(=O)CCNCCOC)sc5c4CCNC5)nc3c2)cc1 [compound 365]

Row | Compound | IC50 [1] [µM] | IC50 (c-Myc/Max/Ebox DNA) [µM]
26 | CC(C)NCCC(=O)Nc1sc2c(c1-c1nc3ccc(C4=CCNCC4)cc3s1)CCNC2 [compound 194] | < 0.3 | < 0.3

From patent publication US10787444B2, “Compounds for the modulation of myc activity” (Syros Pharmaceuticals, Inc., priority 2015, dated 2020)
